In the test the test system is Micrococcus sedentarius NCIMB 40287. Kind of test: Antibiotic sensitivities by the disc method. In kind it is cell-based. As to conditions: disc amount as printed per antibiotic (1 unit, 5-30 μg).

On to `CN[C@H](CC(C)C)C(=O)N[C@H]1C(=O)N[C@@H](CC(N)=O)C(=O)N[C@H]2C(=O)N[C@H]3C(=O)N[C@H](C(=O)N[C@H](C(=O)O)c4cc(O)cc(O)c4-c4cc3ccc4O)[C@H](O)c3ccc(c(Cl)c3)Oc3cc2cc(c3O[C@@H]2O[C@H](CO)[C@@H](O)[C@H](O)[C@H]2O[C@H]2C[C@](C)(N)[C@H](O)[C@H](C)O2)Oc2ccc(cc2Cl)[C@H]1O` [Vanomycin], for which the Antibiotic sensitivity entry is “S”. Next, Neomycin: “S”.

Values taken from US5213978A, “Protease from Micrococcus sedentarius for degrading protein of human callus or corn tissue” (Scholl Plc, priority 1990, dated 1993).
